# Source: patent publication US8952024B2, “Herbicidal pyrimidone derivatives” (E I du Pont de Nemours and Company, priority 2009, dated 2015)
# Key:
# Format in all cases: in vivo
# [1] = system: large crabgrass (Digitaria sanguinalis); test: Test B pre-/postemergence plant response; details: Postemergence
# Summary of the method: (§1)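 Seeds sown in loam–sand blend were treated preemergence, and plants at 2–18 cm (1- to 4-leaf stage) in peat-based medium were treated postemergence; compounds were formulated in non-phytotoxic solvent with surfactant. After 13–15 days in greenhouse, response was visually rated against controls, 0 (no effect) to 100 (complete control).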
# [2] = system: goosegrass (Eleusine indica); test: Test B pre-/postemergence plant response; details: Postemergence
# Summary of the method: as §1
# wild oat (Avena fatua) = test: Test B pre-/postemergence plant response; details: Postemergence
# Summary of the method: as §1
# [3] = system: green foxtail (Setaria viridis); test: Test B pre-/postemergence plant response; details: Postemergence
# Summary of the method: as §1
# [4] = system: morningglory (Ipomoea coccinea); test: Test B pre-/postemergence plant response; details: Postemergence
# Summary of the method: as §1
# [5] = system: cocklebur (Xanthium strumarium); test: Test B pre-/postemergence plant response; details: Postemergence
# Summary of the method: as §1
# [6] = system: yellow nutsedge (Cyperus esculentus); test: Test B pre-/postemergence plant response; details: Postemergence
# Summary of the method: as §1
# [7] = system: bermudagrass (Cynodon dactylon); test: Test B pre-/postemergence plant response; details: Postemergence
# Summary of the method: as §1
# [8] = system: wheat (Triticum aestivum); test: Test B pre-/postemergence plant response; details: Postemergence
# Summary of the method: as §1
# [9] = system: lambsquarters (Chenopodium album); test: Test B pre-/postemergence plant response; details: Postemergence
# Summary of the method: as §1
# [10] = system: barnyardgrass (Echinochloa crus-galli); test: Test B flooded paddy test; details: Echinochloa crus-galli, 360 h
# Summary of the method: (§2)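 Rice, umbrella sedge, ducksalad and barnyardgrass were grown to the 2-leaf stage, flooded to 3 cm, and compound was applied directly to the paddy water, with that depth kept throughout. After 13 to 15 days in the greenhouse, plants were visually rated against controls on a 0 (no effect) to 100 (complete control) scale.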
# [11] = system: umbrella sedge (Cyperus difformis); test: Test B flooded paddy test; details: Cyperus difformis, 360 h
# Summary of the method: as §2
structure (smiles),measurement,setting,value
"COc1ccc(-n2c(-c3ccccc3)ncc(C(=O)C3=C(O)CCCC3=O)c2=O)cc1 [Compound 4, 5-[(2-hydroxy-6-oxo-cyclohexen-1-yl)carbonyl]-3-(4-methoxyphenyl)-2-phenyl-4(3H)-pyrimidinone]",pest or weed control at 31 g/ha,"[1]; Digitaria sanguinalis, post-emergence, 31 g ai/ha, scale 0 to 100 (0 no effect, 100 complete control), read-out: Plant response rating, Crabgrass, Large",70%
same,pest or weed control at 62 g/ha,"[1]; Digitaria sanguinalis, post-emergence, 62 g ai/ha, scale 0 (no effect) to 100 (complete control), 13 to 15 days, read-out: Plant response rating, Crabgrass, Large",85%
same,pest or weed control at 125 g/ha,"[1]; Digitaria sanguinalis, post-emergence, 125 g ai/ha, visual rating after 13 to 15 days, scale 0 (no effect) to 100 (complete control)",100%
same,"Crabgrass, Large plant response rating","[1]; 250 g ai/ha, scale 0 to 100",100
same,pest or weed control at 31 g/ha,"[2]; Eleusine indica, post-emergence, 31 g ai/ha, scale 0 to 100 (0 no effect, 100 complete control), read-out: Plant response rating, Goosegrass",25%
same,pest or weed control at 62 g/ha,"[2]; Eleusine indica, post-emergence, 62 g ai/ha, scale 0 (no effect) to 100 (complete control), 13 to 15 days, read-out: Plant response rating, Goosegrass",75%
same,pest or weed control at 125 g/ha,"[2]; Eleusine indica, post-emergence, 125 g ai/ha, visual rating after 13 to 15 days, scale 0 (no effect) to 100 (complete control)",85%
same,Goosegrass plant response rating,"[2]; 250 g ai/ha, scale 0 to 100",98
same,pest or weed control at 31 g/ha,"wild oat (Avena fatua); Avena fatua, post-emergence, 31 g ai/ha, scale 0 to 100 (0 no effect, 100 complete control), read-out: Plant response rating, Oat, Wild",30%
same,pest or weed control at 62 g/ha,"wild oat (Avena fatua); Avena fatua, post-emergence, 62 g ai/ha, scale 0 (no effect) to 100 (complete control), 13 to 15 days, read-out: Plant response rating, Oat, Wild",50%
same,pest or weed control at 125 g/ha,"wild oat (Avena fatua); Avena fatua, post-emergence, 125 g ai/ha, visual rating after 13 to 15 days, scale 0 (no effect) to 100 (complete control)",50%
same,"Oat, Wild plant response rating","wild oat (Avena fatua); 250 g ai/ha, scale 0 to 100",50
same,"Foxtail, Green plant response rating","[3]; 250 g ai/ha, scale 0 to 100",60
same,pest or weed control at 31 g/ha,"[3]; Setaria viridis, post-emergence, 31 g ai/ha, scale 0 to 100 (0 no effect, 100 complete control), read-out: Plant response rating, Foxtail, Green",40%
same,pest or weed control at 62 g/ha,"[3]; Setaria viridis, post-emergence, 62 g ai/ha, scale 0 (no effect) to 100 (complete control), 13 to 15 days, read-out: Plant response rating, Foxtail, Green",40%
same,pest or weed control at 125 g/ha,"[3]; Setaria viridis, post-emergence, 125 g ai/ha, visual rating after 13 to 15 days, scale 0 (no effect) to 100 (complete control)",60%
same,pest or weed control at 31 g/ha,"[4]; Ipomoea, post-emergence, 31 g ai/ha, scale 0 to 100 (0 no effect, 100 complete control), read-out: Plant response rating, Morningglory",60%
same,pest or weed control at 62 g/ha,"[4]; Ipomoea, post-emergence, 62 g ai/ha, scale 0 (no effect) to 100 (complete control), 13 to 15 days, read-out: Plant response rating, Morningglory",85%
same,pest or weed control at 125 g/ha,"[4]; Ipomoea, post-emergence, 125 g ai/ha, visual rating after 13 to 15 days, scale 0 (no effect) to 100 (complete control)",90%
same,Morningglory plant response rating,"[4]; 250 g ai/ha, scale 0 to 100",95
same,Cocklebur plant response rating,"[5]; 250 g ai/ha, scale 0 to 100",100
same,pest or weed control at 31 g/ha,"[5]; Xanthium strumarium, post-emergence, 31 g ai/ha, scale 0 to 100 (0 no effect, 100 complete control), read-out: Plant response rating, Cocklebur",100%
same,pest or weed control at 62 g/ha,"[5]; Xanthium strumarium, post-emergence, 62 g ai/ha, scale 0 (no effect) to 100 (complete control), 13 to 15 days, read-out: Plant response rating, Cocklebur",100%
same,pest or weed control at 125 g/ha,"[5]; Xanthium strumarium, post-emergence, 125 g ai/ha, visual rating after 13 to 15 days, scale 0 (no effect) to 100 (complete control)",100%
same,pest or weed control at 31 g/ha,"[6]; Cyperus, post-emergence, 31 g ai/ha, scale 0 to 100 (0 no effect, 100 complete control), read-out: Plant response rating, Nutsedge, Yellow",55%
same,pest or weed control at 62 g/ha,"[6]; Cyperus, post-emergence, 62 g ai/ha, scale 0 (no effect) to 100 (complete control), 13 to 15 days, read-out: Plant response rating, Nutsedge, Yellow",65%
same,pest or weed control at 125 g/ha,"[6]; Cyperus, post-emergence, 125 g ai/ha, visual rating after 13 to 15 days, scale 0 (no effect) to 100 (complete control)",75%
same,"Nutsedge, Yellow plant response rating","[6]; 250 g ai/ha, scale 0 to 100",80
same,pest or weed control at 31 g/ha,"[7]; Cynodon dactylon, post-emergence, 31 g ai/ha, scale 0 to 100 (0 no effect, 100 complete control), read-out: Plant response rating, Bermudagrass",15%
same,pest or weed control at 62 g/ha,"[7]; Cynodon dactylon, post-emergence, 62 g ai/ha, scale 0 (no effect) to 100 (complete control), 13 to 15 days, read-out: Plant response rating, Bermudagrass",85%
same,pest or weed control at 125 g/ha,"[7]; Cynodon dactylon, post-emergence, 125 g ai/ha, scale 0 to 100 (0 no effect, 100 complete control), 13 to 15 days, read-out: Plant response rating, Bermudagrass",85%
same,Bermudagrass plant response rating,"[7]; 250 g ai/ha, scale 0 to 100",100
same,Wheat plant response rating,"[8]; 250 g ai/ha, scale 0 to 100",70
same,plant injury at 31 g/ha,"[8]; Triticum aestivum, post-emergence, 31 g ai/ha, scale 0 to 100 (0 no effect, 100 complete control), read-out: Plant response rating, Wheat",5%
same,plant injury at 62 g/ha,"[8]; Triticum aestivum, post-emergence, 62 g ai/ha, scale 0 (no effect) to 100 (complete control), 13 to 15 days, read-out: Plant response rating, Wheat",5%
same,plant injury at 125 g/ha,"[8]; Triticum aestivum, post-emergence, 125 g ai/ha, visual rating after 13 to 15 days, scale 0 (no effect) to 100 (complete control)",50%
same,pest or weed control at 31 g/ha,"[9]; Chenopodium album, post-emergence, 31 g ai/ha, scale 0 to 100 (0 no effect, 100 complete control), read-out: Plant response rating, Lambsquarters",98%
same,pest or weed control at 62 g/ha,"[9]; Chenopodium album, post-emergence, 62 g ai/ha, scale 0 (no effect) to 100 (complete control), 13 to 15 days, read-out: Plant response rating, Lambsquarters",100%
same,pest or weed control at 125 g/ha,"[9]; Chenopodium album, post-emergence, 125 g ai/ha, visual rating after 13 to 15 days, scale 0 (no effect) to 100 (complete control)",100%
same,Lambsquarters plant response rating,"[9]; 250 g ai/ha, scale 0 to 100",100
same,pest or weed control at 250 g/ha,"[10]; 250 g ai/ha, flooded paddy test, visual rating on 0 to 100 scale (0 no effect, 100 complete control) after 13 to 15 days, read-out: Plant response rating, Flood, Barnyardgrass",20%
same,pest or weed control at 31 g/ha,"[10]; Flood (flooded paddy test), 31 g ai/ha, scale of 0 to 100 where 0 is no effect and 100 is complete control, 13 to 15 days, read-out: Plant response rating, Barnyardgrass",0%
same,pest or weed control at 62 g/ha,"[10]; Flood (flooded paddy test), 62 g ai/ha, scale 0 to 100, 0 is no effect, 100 is complete control, 13 to 15 days, read-out: Plant response rating, Barnyardgrass",0%
same,pest or weed control at 125 g/ha,"[10]; Flood (flooded paddy test), 125 g ai/ha, scale 0 to 100, 0 is no effect, 100 is complete control, 13 to 15 days, read-out: Plant response rating, Barnyardgrass",0%
same,pest or weed control at 250 g/ha,"[11]; 250 g ai/ha, flooded paddy test, visual rating on 0 to 100 scale (0 no effect, 100 complete control) after 13 to 15 days, read-out: Plant response rating, Flood, Sedge, Umbrella",90%
same,pest or weed control at 31 g/ha,"[11]; Flood (flooded paddy test), 31 g ai/ha, scale of 0 to 100 where 0 is no effect and 100 is complete control, 13 to 15 days, read-out: Plant response rating, Sedge, Umbrella",50%
same,pest or weed control at 62 g/ha,"[11]; Flood (flooded paddy test), 62 g ai/ha, scale 0 to 100, 0 is no effect, 100 is complete control, 13 to 15 days, read-out: Plant response rating, Sedge, Umbrella",65%
same,pest or weed control at 125 g/ha,"[11]; Flood (flooded paddy test), 125 g ai/ha, scale 0 to 100, 0 is no effect, 100 is complete control, 13 to 15 days, read-out: Plant response rating, Sedge, Umbrella",80%
